Laboratory results reported in patent publication US4626540A, “Substituted 1-amino-4-nitro-acridinones and methods of treating bacterial infections and leukemia with them” (Warner-Lambert Company, priority 1984, dated 1986).
Counter-ions that a name gives are not always drawn.

How the values were obtained:
[1] = system: Branhamella catarrhalis; experiment: In vitro antibacterial (ABMF) microdilution test, Branhamella catarrhalis; assay type: cell-based; conditions: Moraxella catarrhalis; Mueller-Hinton broth, 37° C., 16-24 hours; read-out: ABMF minimal inhibitory conc, B. cat.
Description: (§1) Still another test protocol is the in vitro antibacterial (ABMF) test which is a recognized standard microdilution susceptibility procedure in Mueller-Hinton broth against Gram-positive and Gram-negative bacterial test organisms. The procedure is a modification of a state-of-the-art procedure reported in Manual of Clinical Microbiology, Lennette, E. H., ed., by Barry, A. L. and C. Thornsberry at pages 463-474 and by Gavan, T. L. and A. L. Barry at pages 459-462, American Society for Microbiology, Washington, 1980.
(§2) In the test, a given bacterial culture is used to inoculate individual test wells of microdilution trays containing growth medium and test compound, the latter in a microdilution series: 1000, 333, 111, 37, 12, 4, 1.4, and 0.46 micrograms per milliliter. […] For convenience, values are reported for Escherichia coli, Corynebacterium Sp. ATCC 21698, Branhamella catarrhalis, Streptococcus pneumoniae, and Bacillus cereus.

[2] = system: L1210 murine leukemia cell lines; experiment: In vitro antitumor screening (PDC test), L1210 murine leukemia cell growth; assay type: cell-based; conditions: Mus musculus, 72 h; L1210 cells, 37° C., three days; value is ID50 multiplied by 10^7
Method: Another test protocol is the in vitro antitumor screening (PDC test) of compounds of the present invention on L1210 murine leukemia cell lines. L1210 cells, a murine leukemia cell line, were grown in RPMI 1640 supplemented with 5% fetal bovine serum and gentamicin (50 μg/ml).
Drug dilutions were prepared in the apropriate solvent and 20 μl of each dilution were added to 24-well Linbro tissue culture plats, followed by the addition of M 2.0 ml of cell suspension containing 3×10^4 cells per ml. Solvent and medium controls were included in each test. After incubation at 37° C. for three days in 5% CO2, the contents of each well were removed and the cells counted in a ZBI Coulter counter. Percent growth was calculated relative to the controls and the levels of drug activity wre expressed as ID50 in moles per liter using probit paper.

[3] = system: lymphocytic leukemia P388; experiment: In vivo lymphocytic leukemia P388 test; parameters: species or system CD2 F1 mice; conditions: Mus musculus, P388, ip, intraperitoneal, once daily for five days, survival time treated/control, read-out: P388 in vivo T/C × 100
Method: Another test protocol is the in vivo lymphocytic leukemia P388 test. the animals used are either male or female CD2 F1 mice, six or seven animals per test group. The tumor transplant is by intraperitoneal injection of dilute ascitic fluid containing cells of lymphocytic leukemia P388. The test compounds are administered intraperitoneally once daily for five consecutive days at various doses following tumor inoculation. The animals are weighed and survivors are recorded on a regular basis for 30 days. A compound is designated "toxic" if, at a given dose, all animals die prior to four days after the first injection of drug. A ratio of survival time for treated (T)/control (C) animals is calculated. A criterion for efficacy is a ratio T/C times 100 greater than or equal to 125. See Cancer Chemotherapy Reports, Part 3, 3, 1 (1972) for a comprehensive discussion of the protocol.

[4] = system: Corynebacterium Sp. ATCC 21698; experiment: In vitro antibacterial (ABMF) microdilution test, Corynebacterium Sp.; assay type: cell-based; conditions: ATCC21698, Mueller-Hinton broth, 37° C., 16-24 hours, read-out: ABMF minimal inhibitory conc, Coryn. Species
Description: as §1, §2

[5] = system: Bacillus cereus; experiment: In vitro antibacterial (ABMF) microdilution test, Bacillus cereus; assay type: cell-based; conditions: Mueller-Hinton broth, 37° C., 16-24 hours, read-out: ABMF minimal inhibitory conc, B. cer.
Description: as §1, §2

[6] = system: Streptococcus pneumoniae; experiment: In vitro antibacterial (ABMF) microdilution test, Streptococcus pneumoniae; assay type: cell-based; conditions: Mueller-Hinton broth, 37° C., 16-24 hours, read-out: ABMF minimal inhibitory conc, S. pneu.
Description: as §1, §2

[7] = system: Escherichia coli; experiment: In vitro antibacterial (ABMF) microdilution test, Escherichia coli; assay type: cell-based; conditions: Mueller-Hinton broth, 37° C., 16-24 hours, read-out: ABMF minimal inhibitory conc, E. coli
Description: as §1, §2

[8] = system: HCT-8 cells; experiment: In vitro proliferating human colon adenocarcinoma (HCA) cell screen, HCT-8 cells; assay type: cell-based; conditions: 60-65 hours at 37° C., value is ID50 multiplied by 10^7;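 note: ID50 is the molar concentration giving 50% growth inhibition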
Method: One test protocol is the in vitro proliferating human colon adenocarcinoma (HCA) cell screen. In this test, HCT-8 cells (HCA cell line received from Yale University) are trypsinized using trypsin-EDTA. A single cell suspension is achieved by passing the cells through a 26-gauge needle with a 20-cc syringe. A cell suspension is prepared using RPMI 1640+10% FCS+50 μg/ml gentamicin sulfate with a cell concentration of approximately 5,000 cells/ml. The cell suspension is dispensed in Linbro 24-well plates; 1 ml/well. The plates are incubated for approximately 48 hours at 37° C. in a 5% CO2 atmosphere. At this time test compounds are added in the appropriate concentration. Ten μl of the appropriate dilution is added to each well for a titration test. The plates are reincubated an additional 60-65 hours at 37° C. in a 5% CO2 atmosphere. The cells are lysed using a mix of cationic surfactant, glacial acetic acid and sodium chloride. Two ml of the lysed cell suspension from each well is added to 8 ml of diluent. The number of nuclei is determined using a Coulter counter (ZBI model), and a percent growth for each drug concentration is calculated.

Row | SMILES | MIC [1] [µg/mL] | IC50 [2] [µM] | MIC [4] [µg/mL] | MIC [5] [µg/mL] | MIC [6] [µg/mL] | MIC [7] [µg/mL] | IC50 [8] [µM] | response vs control in vivo at 25 mg/kg [3] [%] | response vs control in vivo at 50 mg/kg [3] [%] | response vs control in vivo at 12.5 mg/kg [3] [%] | response vs control in vivo at 100 mg/kg [3] [%] | response vs control in vivo at 200 mg/kg [3] [%] | response vs control in vivo at 1.56 mg/kg ([3]; 1.56 mg/kg) [%] | response vs control in vivo at 3.12 mg/kg ([3]; 3.12 mg/kg) [%] | response vs control in vivo at 6.25 mg/kg ([3]; 6.25 mg/kg) [%]
1 | CCCOc1ccc2[nH]c3c([N+](=O)[O-])ccc(NCCN(CC)CC)c3c(=O)c2c1.CS(=O)(=O)O [Example 5, 1-[[2-(Diethylamino)ethyl]amino]-4-nitro-7-propoxy-9(10H)-acridinone, methanesulfonate] | > 1000 |  | 0.46 | > 1000 | 1000 | > 1000 | 1.95 | 136 | 146 | 122 | 164 | 186 |  |  | 
2 | CCCCOc1ccc2[nH]c3c([N+](=O)[O-])ccc(NCCN(CC)CC)c3c(=O)c2c1.CS(=O)(=O)O [Example 6, 7-Butoxy-1-[[2-(diethylamino)ethyl]amino]-4-nitro-9-(10H)-acridinone, methanesulfonate] | > 1000 | 0.58 | > 1000 | > 1000 | > 1000 | > 1000 |  | 139 | 160 |  |  |  |  |  | 
3 | CCCCOc1ccc2[nH]c3c([N+](=O)[O-])ccc(NCCN(C)C)c3c(=O)c2c1.CS(=O)(=O)O [Example 11, 7-Butoxy-1-[[2-(dimethylamino)ethyl]amino]-4-nitro-9(10H)-acridinone, methanesulfonate] | > 1000 | 1.6 | > 1000 | > 1000 | > 1000 | > 1000 |  | 130 | 175 |  |  |  |  |  | 
4 | CN(C)CCCNc1ccc([N+](=O)[O-])c2[nH]c3ccc(OC(=O)C(C)(C)C)cc3c(=O)c12 [Example 25, [8-[[3-(Dimethylamino)propyl]amino]-9,10-dihydro-5-nitro-9-oxo-2-acridinyl]-2,2-dimethylpropanoate, methanesulfonate (1:1), hemihydrate] | 333 | 0.015 | 333 | 111 | 333 | 111 |  |  |  | 248 |  |  | 156 | 173 | 214
5 | CCN(CC)CCNc1ccc([N+](=O)[O-])c2c1c(=O)c1ccccc1n2C [Example 30, 1-[[2-(Diethylamino)ethyl]amino]-10-methyl-4-nitro-9(10H)-acridinone, methanesulfonate (1:1), hydrate (1:1)] | 111 |  | 111 | 111 | 37 | 111 |  |  |  |  |  | 147 |  |  | 
6 | CCN(CC)CCNc1ccc([N+](=O)[O-])c2c1c(=O)c1cc(OC)ccc1n2C.CS(=O)(=O)O [Example 31, 1-[[2-(Diethylamino)ethyl]amino]-7-methoxy-10-methyl-4-nitro-9(10H)-acridinone, methanesulfonate (1:1)] | > 1000 |  | 1000 | > 1000 | > 1000 | > 1000 |  |  |  |  | 128 | 128 |  |  | 
7 | CN(C)CCNc1ccc([N+](=O)[O-])c2c1c(=O)c1ccccc1n2C.CS(=O)(=O)O [Example 32, 1-[[2-(Dimethylamino)ethyl]amino]-10-methyl-4-nitro-9(10H)-acridinone, methanesulfonate (1:1)] | > 1000 | 3.2 | 333 | > 1000 | 12.3 | 37 |  |  | 126 |  | 146 |  |  |  | 
8 | COc1ccc2c(c1)c(=O)c1c(NCCN(C)C)ccc([N+](=O)[O-])c1n2C [Example 33] |  | 1.8 |  |  |  |  | 2.27 |  |  |  | 137 | 144 |  |  | 

More lines, main results first:

Row | MIC [1] [µg/mL] | IC50 [2] [µM] | MIC [4] [µg/mL] | MIC [5] [µg/mL] | MIC [6] [µg/mL] | MIC [7] [µg/mL] | IC50 [8] [µM] | SMILES | response vs control in vivo at 25 mg/kg [3] [%] | response vs control in vivo at 50 mg/kg [3] [%] | response vs control in vivo at 12.5 mg/kg [3] [%] | response vs control in vivo at 100 mg/kg [3] [%] | response vs control in vivo at 200 mg/kg [3] [%] | response vs control in vivo at 1.56 mg/kg ([3]; 1.56 mg/kg) [%] | response vs control in vivo at 3.12 mg/kg ([3]; 3.12 mg/kg) [%] | response vs control in vivo at 6.25 mg/kg ([3]; 6.25 mg/kg) [%]
9 | < 0.46 | 0.45 | < 0.46 | 12.3 | < 0.46 | 12.3 |  | CCN(CC)CCNc1ccc([N+](=O)[O-])c2[nH]c3ccccc3c(=O)c12.CS(=O)(=O)O [Example 1, 1-[[2-(Diethylamino)ethyl]amino]-4-nitro-9-(10H)-acridinone, methanesulfonate (1:1)] | 145 | 172 |  |  |  |  |  | 
10 | 12.3 |  | 1.4 | 333 | < 0.46 | 12.3 |  | COc1ccc2[nH]c3c([N+](=O)[O-])ccc(NCC[N+](C)(C)[O-])c3c(=O)c2c1 [Example 14, 1-[[2-(Dimethylamino)ethyl]amino]-7-methoxy-4-nitro-9(10H)-acridinone, N^ω -oxide, 3-chlorobenzoate salt] |  | 157 |  |  |  |  |  | 
11 | 1.4 | 0.42 | < 0.46 | 4.1 | 1.4 | 4.1 |  | CCN(CC)CCNc1ccc([N+](=O)[O-])c2[nH]c3ccc(OC)c(Cl)c3c(=O)c12 [Example 27, 1-Chloro-8-[[2-Diethylamino)ethyl]amino]-2-methoxy-5-nitro-9(10H)acridinone, methanesulfonate] |  |  |  |  |  |  |  | 
12 | < 0.46 | 0.36 | < 0.46 | 1.4 | < 0.46 | 1.4 |  | CCN(CC)CCNc1ccc([N+](=O)[O-])c2[nH]c3cc(O)ccc3c(=O)c12.CS(=O)(=O)O [Example 28, 1-[[2-(Diethylamino)ethyl]amino]-6-hydroxy-4-nitro-9(10H)acridinone, methanesulfonate (1:1)] |  |  |  |  |  |  |  | 
13 | < 0.46 | 0.088 | < 0.46 | < 0.46 | < 0.46 | 1.4 |  | CCN(CC)CCNc1ccc([N+](=O)[O-])c2[nH]c3cccc(O)c3c(=O)c12.CS(=O)(=O)O [Example 29, 1-[[2-(Diethylamino)ethyl]amino]-8-hydroxy-4-nitro-9-(10H)-acridinone, methanesulfonate] |  |  |  |  |  |  |  | 
